We go through one compound from US20090221522A1, “METHODS TO CORRECT GENE SET EXPRESSION PROFILES TO DRUG SENSITIVITY” (The Johns Hopkins University, priority 2008, published 2009).

Each structure is given as a SMILES string.

For one assay, the system named is pancreatic cancer. The note with it: cited from earlier work.
In assay [1] the test system is direct-patient pancreatic cancer xenografts. Nature of the assay: Xenograft treatment, relative tumor growth inhibition (TGI). Type of assay: in vivo, mice. From the text:
Four- to six-week-old female athymic (nu/nu) mice were purchased from Harlan (Harlan Laboratories, Washington, D.C.). The research protocol was approved by the Johns Hopkins University Animal Use and Care Committee and animals were maintained in accordance to guidelines of the American Association of Laboratory Animal Care. Xenografts obtained from F1 mice were excised and cut into small ˜3×3×3 mm fragments and then implanted subcutaneously in a group of five to six mice for each patient, with two small fragments in each mouse (F2) as described above for the original carcinoma. Half of the rest of the carcinoma was cryopreserved in liquid nitrogen and the other half is processed for biological studies. When the carcinoma reached a size of 1,500 mm^3, they were excised, cut into ˜3×3×3 mm fragments, and transplanted to the final cohort of mice to be treated with the drugs (F3 and successive passages). Further details of the establishment of the direct-patient pancreatic cancer xenografts are described in Rubio-Viqueira B, Jimeno A, Cusatis G, et al. An In vivo Platform for Translational Drug Development in Pancreatic Cancer. Clin Cancer Res 2006 12:4652-61.
Gemcitabine (Eli Lilly, Indianapolis, Ind.) was dissolved in saline. In some embodiments, docetaxel (Sanofi-Aventis, Bridgewater, N.J.) was dissolved in 50% ethanol and 50% DMSO. In other embodiments, docetaxel (Sanofi-Aventis, Bridgewater, N.J.) was dissolved in ethanol/polysorbate 80 as a stock solution and diluted 10-fold in 5% glucose for in vivo studies. Temsirolimus (Wyeth Research, Colleville, Pa.) was dissolved in 10% ethanol, 10% pluronic, and 80% PBS. All drugs were freshly prepared and used at an injection volume of 0.2 mL/20 g body weight. Drug doses and treatment schedules were obtained from published studies.
Xenografts from this second mouse-to-mouse passage (F3) were allowed to grow to a size of ˜200 mm^3, at which time five-to-six mice were randomly assigned to control and treatment groups. […] For docetaxel treatment group, mice were treated with 20 mg/kg once a week via intraperitoneal injection. For temsirolimus treatment group, mice were treated with 20 mg/kg/day via intraperitoneal injection. Mice were treated for 21-28 days, monitored daily for signs of toxicity, and were weighed thrice a week. Tumor size was evaluated thrice a week by caliper measurements using the following formula: tumor volume=[length×width^2]/2 as reported by van de Vijver M J, He Y D, van't Veer L J, et al. A Gene-Expression Signature as a Predictor of Survival in Breast Cancer. N Engl J Med 2002 347:1999-2009.
Relative tumor growth index (TGI) was calculated as TGI=(Ti−T0/Ci−C0) if Ti>T0 (indicates tumor growth inhibition) and TGI=(Ti−T0) if Ti≦T0 (indicates tumor regression). T and C represent tumor size in the treated and control group at the last of experiment, respectively; T0 and C0 represent tumor size in the treated and control group at the start of treatment, respectively.

The test system of assay [2] is Resectable Pancreatic Adenocarcinoma. As to the kind of experiment: Disease free survival after adjuvant gemcitabine. The format is in vivo, human. The protocol:
Statistical analysis was performed using software SPSS version 16 (SPSS Inc., Chicago, Ill.). P-values <0.05 were regarded as significant. Disease free survival (DFS) was analyzed using the Kaplan-Meier method and compared with the log-rank test.
The connectivity concept of the present invention can be used with actual patient profiles. Patients were recruited under the Phase II Study of an Individualized Drug Treatment Selection Process Based on a Tumor Xenograft Model for Patients with Resectable Pancreatic Adenocarcinoma (JHOC-J0507 JHOC-05041402, NCT00276744). All patients signed the informed consent of this trial. Twenty-four of the patients with complete follow-up data were included in this study. Direct-patient xenograft cases from the PancXenoBank, Rubio-Viqueira B, Jimeno A, Cusatis G, et al: An In vivo Platform for Translational Drug Development in Pancreatic Cancer. Clin Cancer Res 12:4652-4661, 2006, were also used.
The mean age of diagnosis for these patients is 65 years (range from 41 to 81 years). All patients received gemcitabine as adjuvant chemotherapy. Herrmann R, Bodoky G, Ruhstaller T, et al: Gemcitabine Plus Capecitabine Compared With Gemcitabine Alone in Advanced Pancreatic Cancer: A Randomized, Multicenter, Phase III Trial of the Swiss Group for Clinical Cancer Research and the Central European Cooperative Oncology Group. […] Cancer 85:1261-1268, 1999. […] See Oettle H, Post S, Neuhaus P, et al: Adjuvant Chemotherapy with Gemcitabine vs. Observation in Patients Undergoing Curative-Intent Resection of Pancreatic Cancer: A Randomized Controlled Trial. JAMA 297:267-277, 2007. The median DFS for these patients was 291 days.
Using the methods of the present invention, where a patient is connected to a sensitive cell line, the patient will be predicted as sensitive to gemcitabine and vice versa. This approach achieved an overall prediction accuracy of 71% on these retrospective patient samples. […] The positive predicted value and negative predicted value are 73% and 69%, respectively. […]

`Nc1ccn([C@@H]2O[C@H](CO)[C@@H](O)C2(F)F)c(=O)n1` [gemcitabine]: the “patients who benefit from this therapy” value in the assay on pancreatic cancer (first-line) is reported as around 20%. In the assay on pancreatic cancer (pancreatic cancer patients), the response rate entry is given as “less than 20%”. Further, in assay [1] (five xenografts connected to gemcitabine sensitive NCI-60 cell lines), the “average TGI” value is recorded as −24%. Besides, the “responders (TGI less than −30%, RECIST criterion)” value in assay [1] (of thirty xenografts, gemcitabine, PANC194, PANC266, PANC294, PANC140, PANC253) was “five responders”. In addition, the TGI in assay [1] (xenograft PANC194, gemcitabine) was −63%. Moreover, the “median DFS” value in assay [2] (all 24 patients, gemcitabine as adjuvant chemotherapy) is 291 days; in assay [2] (predicted gemcitabine resistant group) it was 162 days; in assay [2] (predicted gemcitabine sensitive group), 491 days.
